From US20220282217A1, “COMPOSITIONS AND METHODS FOR PREPARING T CELL COMPOSITIONS AND USES THEREOF” (priority 2019, published 2022)
Where a SMILES comes first, the peptide text is derived from it.

What follows are compounds tested against HLA-A02.01 (Homo sapiens, UniProt P04439, D140Y/D185E/D98H/E176V/E277Q/G131W/G231S/I119V/I121R/I166T/I218V/L300P/L318F/N151K/N90K/P208A/P217A/Q86G/Q94H/R138H/R169H/T345S) (assay: Class I MHC peptide binding affinity (displacement of radiolabeled reference peptide)). Settings: not given.
Method: In brief, MHCI complexes were prepared and bound to radiolabeled reference peptides. Peptides were incubated at varying concentrations with these complexes for 2 days, and the amount of remaining radiolabeled peptide bound to […] was measured using size exclusion gel-filtration.

CC[C@H](C)[C@H](NC(=O)[C@H](CC(C)C)NC(=O)[C@H](CCC(N)=O)NC(=O)[C@@H](NC(=O)[C@@H](NC(=O)[C@@H](N)CO)[C@@H](C)O)C(C)C)C(=O)N[C@@H](CCSC)C(=O)N[C@@H](CCC(N)=O)C(=O)N[C@@H](CC(C)C)C(=O)O (H-STVQLIMQL-OH; N-terminus and C-terminus assumed) showed a Kd of 7.26 µM.

Same assay, conditions: BTK C481S peptide; HLA Allele A02.01; read-out: Affinity

For CSCC[C@H](NC(=O)[C@@H](N)Cc1ccc(O)cc1)C(=O)N[C@@H](C)C(=O)N[C@@H](CC(N)=O)C(=O)NCC(=O)N[C@@H](CO)C(=O)N[C@@H](CC(C)C)C(=O)N[C@@H](CC(C)C)C(=O)N[C@@H](CC(N)=O)C(=O)O (H-YMANGSLLN-OH; N-terminus and C-terminus assumed), the IC50 was 4000 nM.

Same assay, conditions: Observed Affinity (IC50; (nM)), allele A02.01

Compared with CC(C)C[C@H](NC(=O)[C@@H](N)CC(C)C)C(=O)N[C@@H](CO)C(=O)N[C@H](C(=O)N1CCC[C@H]1C(=O)N1CCC[C@H]1C(=O)N[C@@H](CC(C)C)C(=O)N[C@@H](CO)C(=O)N1CCC[C@H]1C(=O)N[C@@H](CO)C(=O)O)[C@@H](C)O (H-LLSTPPLSPS-OH; N-terminus and C-terminus assumed), CC[C@H](C)[C@H](NC(=O)[C@H](CC(C)C)NC(=O)[C@H](CCC(N)=O)NC(=O)[C@@H](NC(=O)[C@@H](NC(=O)[C@@H](N)CO)[C@@H](C)O)C(C)C)C(=O)N[C@@H](CCSC)C(=O)N[C@@H](CCC(N)=O)C(=O)N[C@@H](CC(C)C)C(=O)O (H-STVQLIMQL-OH; N-terminus and C-terminus assumed) is 4.8-fold higher in IC50: 1770 nM for the first, 8540 nM for the second. The first is the more potent here.

Going from CC[C@H](C)[C@H](NC(=O)[C@H](CC(N)=O)NC(=O)[C@H](CCSC)NC(=O)[C@@H](N)Cc1c[nH]cn1)C(=O)N[C@@H](C)C(=O)N[C@@H](CC(N)=O)C(=O)N[C@@H](CC(C)C)C(=O)N[C@@H](CC(C)C)C(=O)NCC(=O)N[C@@H](C)C(=O)O (H-HMNIANLLGA-OH; N-terminus and C-terminus assumed) to CC[C@H](C)[C@H](NC(=O)[C@H](CCCCN)NC(=O)[C@H](Cc1ccc(O)cc1)NC(=O)[C@@H](NC(=O)[C@@H](NC(=O)[C@H](CC(=O)O)NC(=O)[C@H](CO)NC(=O)[C@H](CCSC)NC(=O)[C@@H](NC(=O)[C@@H](N)Cc1ccccc1)C(C)C)[C@@H](C)O)[C@@H](C)O)C(=O)O (H-FVMSDTTYKI-OH; N-terminus and C-terminus assumed), the IC50 falls from 430 nM to 62.4 nM (6.9-fold). The second is the more potent here.

Same assay, conditions: allele A02.01; read-out: Observed Affinity (IC50; (nM))

Going from CC[C@H](C)[C@H](NC(=O)[C@H](CCSC)NC(=O)[C@@H](NC(=O)CNC(=O)[C@@H](NC(=O)[C@@H](N)CCC(N)=O)[C@@H](C)O)C(C)C)C(=O)N[C@@H](CS)C(=O)N[C@@H](C)C(=O)N[C@@H](Cc1ccc(O)cc1)C(=O)N[C@@H](CC(C)C)C(=O)O (H-QTGVMICAYL-OH; N-terminus and C-terminus assumed) to CSCC[C@H](NC(=O)[C@@H](N)Cc1ccc(O)cc1)C(=O)N[C@@H](C)C(=O)N[C@@H](CC(N)=O)C(=O)NCC(=O)N[C@@H](CO)C(=O)N[C@@H](CC(C)C)C(=O)N[C@@H](CC(C)C)C(=O)N[C@@H](CC(N)=O)C(=O)O (H-YMANGSLLN-OH; N-terminus and C-terminus assumed), the IC50 falls from 9760 nM to 4440 nM (2.2-fold). The second is the more potent here.

Compared with CC[C@H](C)[C@H](NC(=O)[C@H](CCC(N)=O)NC(=O)[C@@H](N)CO)C(=O)N[C@@H](CCSC)C(=O)N[C@@H](CO)C(=O)N[C@@H](CC(C)C)C(=O)N[C@@H](Cc1c[nH]c2ccccc12)C(=O)NCC(=O)N[C@@H](CC(C)C)C(=O)O, CC(C)C[C@H](NC(=O)[C@H](CO)NC(=O)[C@@H](NC(=O)[C@@H](NC(=O)[C@H](CO)NC(=O)[C@H](CO)NC(=O)[C@H](Cc1c[nH]c2ccccc12)NC(=O)[C@H](CCC(N)=O)NC(=O)[C@@H](N)CCCCN)C(C)C)[C@@H](C)O)C(=O)O (H-KQWSSVTSL-OH; N-terminus and C-terminus assumed) is 2.3-fold lower in IC50: 62 nM for the first, 26.5 nM for the second. The second is the more potent here.

Going from CC[C@H](C)[C@H](NC(=O)[C@H](C)N)C(=O)N[C@@H](CCC(N)=O)C(=O)N1CCC[C@H]1C(=O)N[C@H](C(=O)N[C@@H](CC(C)C)C(=O)N[C@@H](Cc1c[nH]c2ccccc12)C(=O)N[C@H](C(=O)N[C@H](C(=O)O)[C@@H](C)O)[C@@H](C)O)C(C)C (H-AIQPVLWTT-OH; N-terminus and C-terminus assumed) to CC[C@H](C)[C@H](NC(=O)[C@@H]1CCCN1C(=O)[C@H](CCCNC(=N)N)NC(=O)[C@H](Cc1c[nH]c2ccccc12)NC(=O)[C@H](CC(N)=O)NC(=O)[C@H](CCSC)NC(=O)CN)C(=O)N[C@@H](CC(C)C)C(=O)N[C@H](C(=O)O)[C@@H](C)O (H-GMNWRPILT-OH; N-terminus and C-terminus assumed), the IC50 rises from 8.1 nM to 1130 nM (140-fold). The first is the more potent here.

Going from CC[C@H](C)[C@H](NC(=O)[C@@H]1CCCN1C(=O)[C@H](CCCNC(=N)N)NC(=O)[C@H](Cc1c[nH]cn1)NC(=O)[C@@H]1CCCN1C(=O)[C@H](CS)NC(=O)[C@H](CCCNC(=N)N)NC(=O)[C@H](CCC(=O)O)NC(=O)[C@H](CC(C)C)NC(=O)[C@@H](N)C(C)C)C(=O)O to CC(C)C[C@H](NC(=O)[C@H](CCCNC(=N)N)NC(=O)[C@@H](N)C(C)C)C(=O)N[C@@H](CO)C(=O)N[C@@H](CO)C(=O)N[C@@H](CS)C(=O)N[C@H](C(=O)N1CCC[C@H]1C(=O)N[C@H](C(=O)N[C@@H](C)C(=O)O)C(C)C)C(C)C (H-VRLSSCVPVA-OH; N-terminus and C-terminus assumed), the IC50 falls from 15300 nM to 1210 nM (13-fold). The second is the more potent here.

Going from CSCC[C@H](NC(=O)[C@H](CCCNC(=N)N)NC(=O)[C@H](CCCNC(=N)N)NC(=O)[C@H](Cc1ccc(O)cc1)NC(=O)[C@H](CC(=O)O)NC(=O)[C@H](Cc1c[nH]c2ccccc12)NC(=O)[C@H](CO)NC(=O)[C@H](CO)NC(=O)[C@H](CC(C)C)NC(=O)[C@@H](N)Cc1ccccc1)C(=O)O (H-FLSSWDYRRM-OH; N-terminus and C-terminus assumed) to CC(C)C[C@H](NC(=O)[C@@H](N)C(C)C)C(=O)N[C@@H](CCC(N)=O)C(=O)N[C@@H](CCCNC(=N)N)C(=O)N[C@@H](Cc1ccccc1)C(=O)N[C@@H](CCCNC(=N)N)C(=O)N[C@@H](Cc1ccccc1)C(=O)N[C@H](C(=O)N[C@@H](Cc1c[nH]cn1)C(=O)N[C@H](C(=O)O)C(C)C)[C@@H](C)O, the IC50 falls from 324 nM to 107 nM (3-fold).

First: CC[C@H](C)[C@H](NC(=O)[C@@H](N)CC(C)C)C(=O)N[C@H](C(=O)N[C@@H](CO)C(=O)N[C@@H](CCCNC(=N)N)C(=O)N[C@H](C(=O)N[C@@H](CC(C)C)C(=O)N[C@@H](CC(C)C)C(=O)N[C@@H](CC(C)C)C(=O)O)[C@@H](C)O)C(C)C
Second: CC[C@H](C)[C@H](NC(=O)[C@@H](N)CC(C)C)C(=O)N[C@H](C(=O)N[C@@H](CO)C(=O)N[C@@H](CCCNC(=N)N)C(=O)N[C@H](C(=O)N[C@@H](CC(C)C)C(=O)N[C@@H](CC(C)C)C(=O)N[C@@H](CC(C)C)C(=O)N[C@H](C(=O)O)C(C)C)[C@@H](C)O)C(C)C (H-LIVSRTLLLV-OH; N-terminus and C-terminus assumed)
The IC50 of the first is 63-fold lower: 173 nM for the first, 10900 nM for the second.

First: CC(C)C[C@H](NC(=O)[C@H](CCCNC(=N)N)NC(=O)[C@@H](NC(=O)[C@H](CC(C)C)NC(=O)[C@H](CO)NC(=O)[C@@H](N)CCCCN)C(C)C)C(=O)N[C@@H](CO)C(=O)N[C@@H](CO)C(=O)N[C@@H](CS)C(=O)N[C@H](C(=O)O)C(C)C (H-KSLVRLSSCV-OH; N-terminus and C-terminus assumed)
Second: CC[C@H](C)[C@H](N)C(=O)N[C@@H](C)C(=O)N[C@@H](CC(N)=O)C(=O)N[C@@H](CC(C)C)C(=O)N[C@@H](CC(C)C)C(=O)NCC(=O)N[C@@H](C)C(=O)N[C@@H](CS)C(=O)N[C@H](C(=O)N[C@H](C(=O)O)[C@@H](C)CC)[C@@H](C)O (H-IANLLGACTI-OH; N-terminus and C-terminus assumed)
The IC50 of the first is 23-fold lower: 280 nM for the first, 6420 nM for the second. The first is the more potent here.

Going from CSCC[C@H](NC(=O)[C@H](Cc1c[nH]cn1)NC(=O)[C@@H](NC(=O)[C@H](CC(C)C)NC(=O)[C@@H](NC(=O)[C@@H]1CCCN1C(=O)[C@H](C)NC(=O)[C@H](CC(C)C)NC(=O)[C@H](C)N)[C@@H](C)O)[C@@H](C)O)C(=O)N[C@@H](CC(C)C)C(=O)O (H-ALAPTLTHML-OH; N-terminus and C-terminus assumed) to CC(C)C[C@H](NC(=O)[C@H](CC(C)C)NC(=O)[C@H](CC(C)C)NC(=O)[C@H](CC(=O)O)NC(=O)[C@H](CC(N)=O)NC(=O)[C@H](CC(C)C)NC(=O)[C@@H]1CCCN1C(=O)[C@@H](NC(=O)[C@@H](NC(=O)[C@@H](N)CC(N)=O)C(C)C)C(C)C)C(=O)O (H-NVVPLNDLLL-OH; N-terminus and C-terminus assumed), the IC50 rises from 39 nM to 4190 nM (110-fold).

Compared with CC(C)C[C@H](NC(=O)[C@H](Cc1ccccc1)NC(=O)[C@H](Cc1ccccc1)NC(=O)[C@H](CCCCN)NC(=O)[C@@H]1CCCN1C(=O)[C@H](Cc1c[nH]c2ccccc12)NC(=O)[C@H](CCCCN)NC(=O)[C@@H](NC(=O)[C@H](CC(C)C)NC(=O)[C@@H](N)Cc1ccc(O)cc1)[C@@H](C)O)C(=O)O (H-YLTKWPKFFL-OH; N-terminus and C-terminus assumed), CC[C@H](C)[C@H](N)C(=O)N[C@H](C(=O)N[C@@H](C)C(=O)N[C@@H](Cc1ccccc1)C(=O)N[C@@H](Cc1ccccc1)C(=O)N[C@@H](Cc1ccccc1)C(=O)N[C@@H](CS)C(=O)N[C@@H](Cc1c[nH]c2ccccc12)C(=O)N[C@H](C(=O)O)[C@@H](C)CC)[C@@H](C)O (H-ITAFFFCWI-OH; N-terminus and C-terminus assumed) is 170-fold higher in IC50: 42.9 nM for the first, 7490 nM for the second.

Compared with CC(C)C[C@H](NC(=O)[C@H](C)NC(=O)[C@H](CCC(=O)O)NC(=O)[C@H](CCC(N)=O)NC(=O)[C@@H](NC(=O)[C@H](CC(=O)O)NC(=O)[C@H](Cc1ccccc1)NC(=O)[C@H](CCC(=O)O)NC(=O)[C@H](CCC(N)=O)NC(=O)[C@@H](N)CC(C)C)C(C)C)C(=O)O [LQEFDVQEAL] (H-LQEFDVQEAL-OH), CC(C)C[C@H](NC(=O)[C@@H](N)CC(C)C)C(=O)N[C@@H](CCC(N)=O)C(=O)N[C@@H](CCC(=O)O)C(=O)N[C@@H](Cc1ccccc1)C(=O)N[C@@H](CC(=O)O)C(=O)N[C@H](C(=O)N[C@@H](CCC(N)=O)C(=O)N[C@@H](CCC(=O)O)C(=O)N[C@@H](C)C(=O)O)C(C)C (H-LLQEFDVQEA-OH) is 1100-fold lower in IC50: 50300 nM for the first, 45 nM for the second.

Compound CC(C)C[C@H](NC(=O)[C@H](C)N)C(=O)N[C@@H](CCC(=O)O)C(=O)N[C@@H](CCC(=O)O)C(=O)N[C@@H](CCCCN)C(=O)N[C@@H](CCCCN)C(=O)NCC(=O)N[C@@H](CC(N)=O)C(=O)N[C@@H](Cc1ccc(O)cc1)C(=O)N[C@H](C(=O)O)C(C)C (H-ALEEKKGNYV-OH; N-terminus and C-terminus assumed) has an IC50 of 141 nM.
